Laboratory results as given in US4785090A, “Cephalosporin derivatives” (Meiji Seika Kaisha, Ltd., priority 1984, dated 1988).
In brackets after ≈: the same amount, converted by molar mass. Counter-ions that a name gives are not always drawn. Like-named read-outs stand apart in the source and are kept apart here.

Assays:
[1] = system: Staphylococcus aureus 209PJC1; assay: Minimum Growth Inhibitory Concentration (MIC), Staphylococcus aureus 209PJC1; assay type: cell-based
Excerpt: (§1) Minimum Growth Inhibitory Concentration (MIC) mcg/ml
1. Staphylococcus aureus 209PJC1
as §1
2. Staphylococcus aureus 209 PJC1

[2] = system: Proteus vulgaris GN 76; assay: Minimum Growth Inhibitory Concentration (MIC), Proteus vulgaris GN 76; assay type: cell-based
Excerpt: as §1
10. Proteus vulgaris GN 76
as §1
8. Proteus vulgaris GN 76

[3] = system: Serratia marcescens No. 2; assay: Minimum Growth Inhibitory Concentration (MIC), Serratia marcescens No. 2; assay type: cell-based
Excerpt: as §1
10. Serratia marcescens No. 2

[4] = system: Klebsiella pneumoniae PCI 602; assay: Minimum Growth Inhibitory Concentration (MIC), Klebsiella pneumoniae PCI 602; assay type: cell-based
Excerpt: as §1
5. Klebsiella pneumoniae PCI 602

[5] = system: Escherichia coli NIHJ JC2; assay: Minimum Growth Inhibitory Concentration (MIC), Escherichia coli NIHJ JC2; assay type: cell-based
Excerpt: as §1
3. Escherichia coli NIHJ JC2

[6] = system: Proteus mirabilis GN 79; assay: Minimum Growth Inhibitory Concentration (MIC), Proteus mirabilis GN 79; assay type: cell-based
Excerpt: as §1
6. Proteus mirabilis GN 79

[7] = system: Proteus rettgeri GN624; assay: Minimum Growth Inhibitory Concentration (MIC), Proteus rettgeri GN624; assay type: cell-based; conditions: Providencia rettgeri
Excerpt: as §1
9. Proteus rettgeri GN624

[8] = system: Staphylococcus aureus Smith; assay: Minimum Growth Inhibitory Concentration (MIC), Staphylococcus aureus Smith; assay type: cell-based; conditions: read-out: Minimum Growth Inhibitory Concentration (MIC)
Excerpt: as §1
1. Staphylococcus aureus Smith

[9] = system: Eshcerichia coli GN 206; assay: Minimum Growth Inhibitory Concentration (MIC), Escherichia coli GN 206; assay type: cell-based
Excerpt: as §1
4. Eshcerichia coli GN 206

[10] = system: Salmonella typhimurium LT2; assay: Minimum Growth Inhibitory Concentration (MIC), Salmonella typhimurium LT2; assay type: cell-based; conditions: Salmonella enterica, read-out: Minimum Growth Inhibitory Concentration (MIC)
Excerpt: as §1
7. Salmonella typhimurium LT2

[11] = system: Serratia marcescens No. 1; assay: Minimum Growth Inhibitory Concentration (MIC), Serratia marcescens No. 1; assay type: cell-based; conditions: Table 2, bacterium 11: Serratia marcescens No. 1
Excerpt: as §1
11. Serratia marcescens No. 1

[12] = Serum concentration in mice after subcutaneous administration; assay type: in vivo; conditions: mouse, sc, subcutaneous 25 mg/kg
Procedure: The experiment was conducted by using 3 mice (average body weight 20 g) in each group, subcutaneously administering 25 mg/kg of the sample, taking blood samples at predetermined intervals, separating the serum and measuring the sample concentration by an antibacterial activity test using Escherichia coli as a testing bactera.

[13] = Staphylococcus aureus, 209PJC1, read-out: Minimum Growth Inhibitory Concentration (MIC)
[14] = Proteus vulgaris, GN76, read-out: Minimum Growth Inhibitory Concentration (MIC)
[15] = Serratia marcescens, NO.2, read-out: Minimum Growth Inhibitory Concentration (MIC)
[16] = Klebsiella pneumoniae, PCI602, read-out: Minimum Growth Inhibitory Concentration (MIC)
[17] = Escherichia coli, NIHJJC2, read-out: Minimum Growth Inhibitory Concentration (MIC)
[18] = Proteus mirabilis, GN79, read-out: Minimum Growth Inhibitory Concentration (MIC)
[19] = GN624, read-out: Minimum Growth Inhibitory Concentration (MIC)
[20] = GN206, read-out: Minimum Growth Inhibitory Concentration (MIC)
[21] = Table 2, bacterium 7: Salmonella typhimurium LT2
[22] = Table 2, bacterium 2: Staphylococcus aureus 209 PJC1, read-out: Minimum Growth Inhibitory Concentration (MIC)
[23] = GN76, Table 2, bacterium 8: Proteus vulgaris GN 76, read-out: Minimum Growth Inhibitory Concentration (MIC)
[24] = PCI602, Table 2, bacterium 5: Klebsiella pneumoniae PCI 602, read-out: Minimum Growth Inhibitory Concentration (MIC)
[25] = NIHJJC2, Table 2, bacterium 3: Escherichia coli NIHJ JC2, read-out: Minimum Growth Inhibitory Concentration (MIC)
[26] = GN79, Table 2, bacterium 6: Proteus mirabilis GN 79, read-out: Minimum Growth Inhibitory Concentration (MIC)
[27] = Table 2, bacterium 9: Proteus rettgeri GN624, read-out: Minimum Growth Inhibitory Concentration (MIC)
[28] = Table 2, bacterium 1: Staphylococcus aureus Smith
[29] = GN206, Table 2, bacterium 4: Eshcerichia coli GN 206, read-out: Minimum Growth Inhibitory Concentration (MIC)
[30] = Table 2, bacterium 10: Serratia marcescens No. 2, read-out: Minimum Growth Inhibitory Concentration (MIC)

Row | SMILES | MIC [1, 13] | MIC [2, 14] | MIC [3, 15] | MIC [4, 16] | MIC [5, 17] | MIC [6, 18] | MIC [7, 19] | MIC ([8]; Staphylococcus aureus) | MIC [9, 20] | MIC [10, 21] | MIC [1, 22] | MIC [2, 23] | MIC [4, 24] | MIC [5, 25] | MIC [6, 26] | MIC [7, 27] | MIC [8, 28] | MIC [11] | MIC [9, 29] | MIC [3, 30] | also measured
1 | Nc1nc(/C(=N/OCC(=O)O)C(=O)N[C@@H]2C(=O)N3C(C(=O)O)=C(CSc4cc[n+](CC(=O)O)cc4)CS[C@H]23)cs1.[Na+] [Example 29, (6R,7R)-7-[(Z)-2-(2-Aminothiazol-4-yl)-2-(carboxymethoxyimino)acetamido]-3-[(1-carboxymethylpyridinium-4-yl)thiomethyl]-ceph-3-em-4-carboxylic acid sodium salt] | 0.39 µg/mL | 0.2 µg/mL | 0.39 µg/mL | 0.1 µg/mL | 0.39 µg/mL | 0.79 µg/mL | 3.13 µg/mL | 0.78 µg/mL | 0.39 µg/mL | 0.2 µg/mL |  |  |  |  |  |  |  |  |  |  | 
2 | CO/N=C(\C(=O)N[C@@H]1C(=O)N2C(C(=O)[O-])=C(CSc3cc[n+](CC(F)(F)F)cc3)CS[C@H]12)c1csc(N)n1 [Example 80, (6R,7R)-7-[(Z)-2-(2-Aminothiazol-4-yl)-2-methoxyiminoacetamido]-3-[1-(2,2,2-trifluoroethylpyridinium-4-yl)thiomethyl]-ceph-3-em-4-carboxylate] |  |  |  |  |  |  |  |  |  | 0.2 µg/mL (≈ 0.34 µM) | 0.2 µg/mL (≈ 0.34 µM) | 0.78 µg/mL (≈ 1.33 µM) | 0.2 µg/mL (≈ 0.34 µM) | 0.2 µg/mL (≈ 0.34 µM) | 1.56 µg/mL (≈ 2.65 µM) | 0.2 µg/mL (≈ 0.34 µM) | 0.2 µg/mL (≈ 0.34 µM) | 0.2 µg/mL (≈ 0.34 µM) | 0.05 µg/mL (≈ 0.0849 µM) |  | 
3 | Nc1nc(/C(=N/OCC(=O)O)C(=O)N[C@@H]2C(=O)N3C(C(=O)[O-])=C(CSc4cc[n+](CC(F)(F)F)cc4)CS[C@H]23)cs1 [Example 82, (6R,7R)-7-[(Z)-2-(2-Aminothiazol-4-yl)-2-(carboxymethoxyimino)acetamido]-3-[1-(2,2,2-trifluoroethylpyridinium-4-yl)thiomethyl]-ceph-3-em-4-carboxylic acid sodium salt] |  |  |  |  |  |  |  |  |  |  | 3.13 µg/mL | 0.05 µg/mL | ≤ 0.025 µg/mL | 0.05 µg/mL | 0.05 µg/mL | < 0.025 µg/mL | 3.13 µg/mL | < 0.025 µg/mL | 0.05 µg/mL |  | MIC ([10]; TYPHIMURIUM): < 0.025 µg/mL
4 | CO/N=C(\C(=O)N[C@@H]1C(=O)N2C(C(=O)O)=C(CSc3cc[n+](CC(=O)O)cc3)CS[C@H]12)c1csc(N)n1.[Na+] | 0.78 µg/mL | 0.05 µg/mL | 0.05 µg/mL | 0.025 µg/mL | 1.56 µg/mL | 0.2 µg/mL | 0.39 µg/mL | 1.56 µg/mL | 0.2 µg/mL |  |  |  |  |  |  |  |  |  |  |  | concentration at 0.5 h ([12]; 1/2 hr): 12500 ng/mL; concentration at 0.25 h ([12]; 1/4 hr): 28000 ng/mL; concentration at 5 min ([12]; 1/12 hr): 20000 ng/mL; concentration at 1 h ([12]; 1 hr): 2200 ng/mL; MIC ([10]; TYPHIMURIUM): 0.025 µg/mL
5 | C=CCO/N=C(\C(=O)N[C@@H]1C(=O)N2C(C(=O)O)=C(CSc3cc[n+](CC(=O)O)cc3)CS[C@H]12)c1csc(N)n1.[Na+] [Example 30, (6R,7R)-7-[(Z)-2-(2-Aminothiazol-4-yl)-2-(allyloxyimino)acetamido]-3-[(1-carboxymethylpyridinium-4-yl)thiomethyl]-ceph-3-em-4-carboxylic acid sodium salt] | 12.5 µg/mL | 0.05 µg/mL | 0.1 µg/mL | 0.1 µg/mL | 25 µg/mL | 0.05 µg/mL | 0.2 µg/mL | 25 µg/mL | 1.56 µg/mL | 0.1 µg/mL |  |  |  |  |  |  |  |  |  |  | 
6 | CO/N=C(\C(=O)N[C@@H]1C(=O)N2C(C(=O)[O-])=C(CSc3cc[n+](CCF)cc3)CS[C@H]12)c1csc(N)n1 [Example 84, (6R,7R)-7-[(Z)-2-(2-Aminothiazol-4-yl)-2-methoxyiminoacetamido]-3-[1-(2-fluoroethylpyridinium-4-yl)thiomethyl]-ceph-3-em-4-carboxylate] |  |  |  |  |  |  |  |  |  | 0.05 µg/mL (≈ 0.0905 µM) | 0.2 µg/mL (≈ 0.362 µM) | 0.2 µg/mL (≈ 0.362 µM) | 0.1 µg/mL (≈ 0.181 µM) | 0.05 µg/mL (≈ 0.0905 µM) | 0.39 µg/mL (≈ 0.706 µM) | 0.1 µg/mL (≈ 0.181 µM) | 0.2 µg/mL (≈ 0.362 µM) | 0.025 µg/mL (≈ 0.0452 µM) | < 0.025 µg/mL |  | 
7 | CC(C)(O/N=C(\C(=O)N[C@@H]1C(=O)N2C(C(=O)[O-])=C(CSc3cc[n+](CC(F)(F)F)cc3)CS[C@H]12)c1csc(N)n1)C(=O)O [Example 83, (6R,7R)-7-[(Z)-2-(2-Aminothiazol-4-yl)-2-(carboxyprop-2-oxyimino)acetamido]-3-[1-(2,2,2-trifluoroethylpyridinium-4-yl)thiomethyl]-ceph-3-em-4-carboxylic acid sodium salt] |  |  |  |  |  |  |  |  |  | 0.05 µg/mL | 3.13 µg/mL | 0.2 µg/mL | 0.2 µg/mL | 0.2 µg/mL | 0.39 µg/mL | 0.2 µg/mL | 6.25 µg/mL | 0.05 µg/mL | 0.2 µg/mL |  | 
8 | CCO/N=C(\C(=O)N[C@@H]1C(=O)N2C(C(=O)[O-])=C(CSc3cc[n+](C(C(=O)O)c4ccccc4)cc3)CS[C@H]12)c1csc(N)n1 (stereo partly drawn) [Example 32, (6R,7R)-7-[(Z)-2-(2-Aminothiazol-4-yl)-2-ethoxyiminoacetamido]-3-[(1-carboxybenzylpyridinium-4-yl)thiomethyl]-ceph-3-em-4-carboxylic acid sodium salt] |  |  |  |  |  |  |  |  |  | 0.39 µg/mL | 1.56 µg/mL | 0.78 µg/mL | 0.2 µg/mL | 0.39 µg/mL | 3.13 µg/mL | 0.39 µg/mL | 1.56 µg/mL |  | 0.78 µg/mL | 0.78 µg/mL | 
9 | CCO/N=C(\C(=O)N[C@@H]1C(=O)N2C(C(=O)[O-])=C(CSc3cc[n+](C(C)C(=O)O)cc3)CS[C@H]12)c1csc(N)n1 (stereo partly drawn) [Example 31, (6R,7R)-7-[(Z)-2-(2-Aminothiazol-4-yl)-2-ethoxyiminoacetamido]-3-[1-(1-carboxy-1-ethylpyridinium-4-yl)thiomethyl]-ceph-3-em-4-carboxylic acid sodium salt] |  |  |  |  |  |  |  |  |  | 0.2 µg/mL | 3.13 µg/mL | 1.56 µg/mL | 0.2 µg/mL | 6.25 µg/mL | 0.78 µg/mL | 0.78 µg/mL | 3.13 µg/mL |  | 0.39 µg/mL | 0.39 µg/mL | 
10 | CCO/N=C(\C(=O)N[C@@H]1C(=O)N2C(C(=O)[O-])=C(CSc3cccc[n+]3CC(=O)O)CS[C@H]12)c1csc(N)n1 [Example 33, sodium salt] |  |  |  |  |  |  |  |  |  | 0.05 µg/mL | 0.78 µg/mL | 0.39 µg/mL | 0.05 µg/mL | 0.05 µg/mL | 0.39 µg/mL | 6.25 µg/mL | 1.56 µg/mL |  | 0.78 µg/mL | 0.1 µg/mL | 
